Experimental data taken from patent publication US8604217B2, “Compound, a process for its preparation, a pharmaceutical composition, use of a compound, a method for modulating or regulating serine/threonine kinases and a serine/threonine kinases modulating agent” (Selvita S.A., priority 2009, dated 2013).

Assays:
[1] = test system: human prostate adenocarcinoma PC3 cells; test: Growth inhibition test (MTS) on PC3 cells; assay type: cell-based; details: Homo sapiens, PC-3, 72 hours, read-out: PC-3 ED50
Text: (§1) Two thousand cells of human prostate adenocarcinoma PC3 were inoculated into each well of a 96-well microplate (manufactured by Corning Corp.), and using F12K (Ham's F12:RPMI 8226 1:1) medium (culture medium) containing 10% fetal calf serum (FCS). Next day, a dimethyl sulfoxide (DMSO) solution of each test compound prepared in a concentration of 10 mmol/L was further diluted with culture medium to the desired concentrations (0.1, 0.5, 1, 2.5, 5 and 10 micromol/L), and the diluted solution was added to each well. The individual wells were further cultured in 5% carbon dioxide at 37° C. for 72 hours. After completion of the culture, 10 μl MTS (3-(4,5-Dimethyl-2-thiazolyl)-5-(carboxymethoxyphenyl)-2-(4-sulfophenyl)-2H-tetrazolium, inner salt assay (CellTiter96® AQueous One Solution Cell Proliferation Assay, Promega) was added to each well, and culturing was performed in 5% carbon dioxide at 37° C. for 2 hours. Using a microplate spectrophotometer (Synergy 2 multi-mode microplate reader (BioTek)), the absorbance of each well was measured at 490 nm. The value for cells not incorporated with a test compound was designated as 100%. By comparing these values with the absorbance difference obtained at the well in which each test compound was added, the cell viability (% viability) after treatment with the test compound was calculated.

[2] = test system: human hepatoma HepG2 cells; test: Growth inhibition test (MTS) on HepG2 cells; assay type: cell-based; details: 72 hours, read-out: HepG2 ED50
Method: as §1, with “hepatoma HepG2” for “prostate adenocarcinoma PC3”, “Corp.)” for “Corp.), and”, “DMEM” for “F12K (Ham's F12:RPMI 8226 1:1)”

PIM-1 = PIM-1 (Homo sapiens (Human), UniProt P11309); test: Luminometric kinase assay for PIM1 kinase (Kinase-Glo); assay type: biochemical; details: 1 μM ATP, 25 min at RT
Chain of PIM-1 (P11309 whole entry): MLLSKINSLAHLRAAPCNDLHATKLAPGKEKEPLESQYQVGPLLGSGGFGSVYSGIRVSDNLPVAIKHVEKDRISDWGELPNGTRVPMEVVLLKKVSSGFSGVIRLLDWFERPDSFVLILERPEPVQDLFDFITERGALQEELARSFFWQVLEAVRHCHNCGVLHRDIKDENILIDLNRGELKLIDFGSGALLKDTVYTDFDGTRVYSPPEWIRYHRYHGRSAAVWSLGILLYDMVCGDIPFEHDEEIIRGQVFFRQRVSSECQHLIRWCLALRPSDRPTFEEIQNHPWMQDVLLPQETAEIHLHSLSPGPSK
Method: Kinase assay was performed using luminescent Kinase-Glo® (Promega) system. The Kinase-Glo® Luminescent Kinase Assay Platform provides a homogeneous, high-throughput screening method for measuring kinase activity by quantifying the amount of ATP remaining in solution following a kinase reaction. The luminescent signal is correlated with the amount of ATP present and is inversely correlated with the kinase activity. Appropriate amounts of both kinase and substrate were mixed in 96-well, white wall plate in the reaction buffer (8 mM MOPS/NaOH, pH7.0, 0.2 mM EDTA, 2 mM MgCl2). Tested compounds were diluted in DMSO and serial dilutions starting with 1 μM were added to the palates. Reaction was initiated by adding 1 μM of ATP solution and conducted for 25 min. at RT. Luminescent signal was detected by adding Kinase-Glo® reagent and measured using a microplate spectrophotometer (Synergy 2 multi-mode microplate reader (BioTek)). IC50 values were obtained by fitting sigmoidal dose-response curve (variable slope) using GraphPad Prism software.

[3] = test system: human myelomonocytic, biphenotypic leukemia MV4-11 cells; test: Growth inhibition test (MTS) on MV4-11 cells; assay type: cell-based; details: Homo sapiens, MV4-11, 72 hours, read-out: MV-4-11 ED50
Method: as §1, with “Ten” for “Two”, “myelomonocytic, biphenotypic leukemia MV4-11” for “prostate adenocarcinoma PC3”, “Corp.)” for “Corp.), and”, “Iscove's MDM” for “F12K (Ham's F12:RPMI 8226 1:1)”

[4] = test system: human acute lymphocytic leukemia E6.1 Jurkat cells; test: Growth inhibition test (MTS) on E6.1 Jurkat cells; assay type: cell-based; details: 72 hours, read-out: Jurkat ED50
Method: as §1, with “Twenty” for “Two”, “acute lumphocytic leukemia E6.1 Jurkat” for “prostate adenocarcinoma PC3”, “Corp.)” for “Corp.), and”, “[…]” for “F12K (Ham's F12:RPMI”, “[…]” for “8226 1:1)”

[5] = test system: human breast adenocarcinoma MCF7 cells; test: Growth inhibition test (MTS) on MCF7 cells; assay type: cell-based; details: Homo sapiens, MCF7, 72 hours, read-out: MCF-7 ED50
Method: as §1, with “breast” for “prostate”, “MCF7” for “PC3”, “DMEM” for “F12K (Ham's F12:RPMI 8226 1:1)”

| IC50 [1] [µM] | IC50 [2] [µM] | IC50 (PIM-1) [µM] | IC50 [3] [µM] | IC50 [4] [µM] | IC50 [5] [µM] | Compound |
| --- | --- | --- | --- | --- | --- | --- |
| 8.83 | 3.58 | 0.0627 | 4.86 | 8.42 | 8.31 | CN(C)CCN(Cc1ccccc1)c1nc2c(Br)c(Br)c(Br)c(Br)c2[nH]1 [Compound 158, N-benzyl-4,5,6,7-tetrabromo-N-(2-(dimethylamino)ethyl)-1H-benzo[d]imidazol-2-amine] |
| 3.15 | 2.62 | 0.051 | 1.19 | 4.92 | 4.93 | CN(C)CCN1CCC(CNc2nc3c(Br)c(Br)c(Br)c(Br)c3[nH]2)C1 (stereo not shown) [Compound 166, 4,5,6,7-tetrabromo-N-((1-(2-(dimethylamino)ethyl)pyrrolidin-3-yl)methyl)-1H-benzo[d]imidazol-2-amine] |
| 2.5 | 2.2 |  | 1.6 | 4.4 | 4.2 | Brc1cccc(Nc2nc3c(Br)c(Br)c(Br)c(Br)c3[nH]2)c1 [Compound 236, 4,5,6,7-tetrabromo-N-(3-bromophenyl)-1H-benzo[d]imidazol-2-amine] |
|  | 9.01 | 0.109 | 5.96 | 7.84 | 7.15 | Brc1c(Br)c(Br)c2[nH]c(NCCN3CCN(c4ncccn4)CC3)nc2c1Br [Compound 247, 4,5,6,7-tetrabromo-N-(2-(4-(pyrimidin-2-yl)piperazin-1-yl)ethyl)-1H-benzo[d]imidazol-2-amine] |
| 5.18 | 3.39 |  | 2.6 | 4.86 | 5.11 | CN1CCCN(c2nc3c(Br)c(Br)c(Br)c(Br)c3[nH]2)CC1 [Compound 256, 4,5,6,7-tetrabromo-2-(4-methyl-1,4-diazepan-1-yl)-1H-benzo[d]imidazole] |
| 3.51 | 5.49 |  | 6.44 | 7.11 | 5.9 | Brc1c(Br)c(Br)c2[nH]c(Nc3ccc4ccccc4c3)nc2c1Br [Compound 259, 4,5,6,7-tetrabromo-N-(naphthalen-3-yl)-1H-benzo[d]imidazol-2-amine] |
| 5.59 | 7.04 | 0.0299 | 1.45 | 5.35 | 5.65 | Brc1c(Br)c(Br)c2[nH]c(N3CCCNCC3)nc2c1Br [Compound 260, 4,5,6,7-tetrabromo-2-(1,4-diazepan-1-yl)-1H-benzo[d]imidazole] |
| 3.2 | 4.29 | 0.138 | 3.41 | 4.52 | 4.94 | Brc1c(Br)c(Br)c2[nH]c(NC3CCCCCCC3)nc2c1Br [Compound 261, 4,5,6,7-tetrabromo-N-cyclooctyl-1H-benzo[d]imidazol-2-amine] |
| 2.64 | 2.66 | 0.0475 | 2.39 | 2.56 | 2.76 | CN1CCC(N(C)CC(Nc2nc3c(Br)c(Br)c(Br)c(Br)c3[nH]2)c2ccccc2)CC1 (stereo not shown) [Compound 263, N-(4,5,6,7-tetrabromo-1H-benzo[d]imidazol-2-yl)-N′-methyl-N′-(1-methylpiperidin-4-yl)-1-phenylethane-1,2-diamine] |
| 4.57 | 1.8 | 0.0674 | 2.22 | 3.62 | 3.09 | CCN1CCCC1CNc1nc2c(Br)c(Br)c(Br)c(Br)c2[nH]1 (stereo not shown) [Compound 265a, 4,5,6,7-tetrabromo-N-((1-ethylpyrrolidin-2-yl)methyl)-1H-benzo[d]imidazol-2-amine] |
|  | 4.33 | 0.598 | 3.95 | 7.05 | 6.63 | Nc1cc(Br)c(Br)cc1Nc1nc2c(Br)c(Br)c(Br)c(Br)c2[nH]1 [Compound 317, 4,5-dibromo-N1-(4,5,6,7-tetrabromo-1H-benzo[d]imidazol-2-yl)benzene-1,2-diamine] |
